According to ChEMBL document CHEMBL1938228, “Design and synthesis of potent carboxylic acid DGAT1 inhibitors with high cell permeability” (Bioorg Med Chem Lett, 2012):

Legend:
Salmonella typhimurium = experiment: Induction of mutagenesis in Salmonella Typhimurium TA98 assessed as increase in mutation frequency in presence of liver S9 fraction relative to untreated control; type: toxicity, organism-based; details: salmonella enterica subsp. enterica serovar typhimurium
[1] = Lipophilicity, log D of the compound; type: physicochemical; details: octanol/water
[2] = Aqueous solubility of the compound; type: physicochemical

| Structure (SMILES) | fold change (FC) (Salmonella typhimurium) | logD [1] | solubility [2] |
| --- | --- | --- | --- |
| CC(C)(COc1ccc(-c2ccc(N)cc2)cc1)C(=O)O | 24 |  |  |
| CC(C)(COc1ccc(-c2ccc(N)cc2)cn1)C(=O)O | 2.6 |  |  |
| CC(Sc1nnc(-c2ccc(NC(=O)c3ccccc3)cc2)n1C)C(=O)O (racemic) |  | -0.53 | > 1000 µg/mL |
